# Assay results published in publication PMC5896373 (Molecular Pharmacology, 2018).
# Changes are numbered by the printed parent chain.
# What was measured:
# [1] = target: T1, chimeric P2X7/1 receptor 122–128 (Homo sapiens, UniProt Q99572, DEL124-124/I21V/L128I/M24R/N16P/N25R/Q22R/R125E/R126G/R20V/S23N/T127G/T19I/Y122H/Y26L); test: Two-electrode voltage clamp of ATP-evoked currents in Xenopus oocytes; assay type: cell-based
# T1 construct: expressed in transfected cells; host or cells: Xenopus laevis oocytes (cRNA injection)
# T1 sequence (Q99572 with tags, fused parts or gaps N16P/T19I/R20V/I21V/Q22R/S23N/M24R/N25R/Y26L/Y122H/DEL124-124/R125E/R126G/T127G/L128I): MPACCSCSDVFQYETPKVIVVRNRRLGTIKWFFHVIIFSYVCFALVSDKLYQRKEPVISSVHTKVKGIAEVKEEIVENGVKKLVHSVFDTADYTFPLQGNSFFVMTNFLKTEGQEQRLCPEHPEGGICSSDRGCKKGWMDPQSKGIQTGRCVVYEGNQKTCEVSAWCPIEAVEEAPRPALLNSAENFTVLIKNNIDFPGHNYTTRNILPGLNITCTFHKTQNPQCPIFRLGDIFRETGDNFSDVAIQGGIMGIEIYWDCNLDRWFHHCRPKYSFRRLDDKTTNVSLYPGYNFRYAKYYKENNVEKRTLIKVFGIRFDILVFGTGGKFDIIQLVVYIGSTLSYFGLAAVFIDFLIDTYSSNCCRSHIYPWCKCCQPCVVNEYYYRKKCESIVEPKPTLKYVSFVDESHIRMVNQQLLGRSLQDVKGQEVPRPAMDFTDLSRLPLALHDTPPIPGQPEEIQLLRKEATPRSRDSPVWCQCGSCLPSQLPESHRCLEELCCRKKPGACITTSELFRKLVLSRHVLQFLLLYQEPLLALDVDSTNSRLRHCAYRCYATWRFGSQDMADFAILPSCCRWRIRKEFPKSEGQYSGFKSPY
# Experimental: Additional point mutants were made using the QuikChange mutagenesis kit (Stratagene California, La Jolla, CA). The production of the correct mutations and absence of coding errors was determined by DNA sequencing (Automated ABI Sequencing Service, University of Leicester, UK). cRNA was generated for the mutants and 50 nl (50 ng) was injected into manually defoliculated stage V Xenopus laevis oocytes using an Inject+Matic microinjector (J.A. Gabay, Inject+Matic, Geneva, Switzerland). Injected oocytes were stored at 16°C in ND96 buffer [in millimolar concentrations, NaCl 96, KCl 2, CaCl2 1.8, MgCl2 1, sodium pyruvate 5, and HEPES 5 (pH 7.6) supplemented with 50 μg/ml gentamycin and 50 μg/ml tetracycline]. Three to seven days postinjection two-electrode voltage clamp recordings were made from oocytes bathed in divalent-free ND96 buffer (in millimolar concentrations, NaCl 96, KCl 2, sodium pyruvate 5, HEPES 5, and 0.1 flufenamic acid, pH 7.6). Oocytes were voltage clamped at a holding potential of −60 mV with a GeneClamp500B amplifier (Molecular Devices).
# (§1) Inhibition by the antagonists was expressed as the percentage of the peak current amplitude of an EC90 concentration of ATP recorded before the application of antagonist (ATP gave reproducible responses to ATP in the absence of antagonist). Inhibition curves were fitted with the Hill equation (variable slope) using GraphPad Prism 6 (GraphPad Software, San Diego, CA). […] Individual concentration-response curves were generated for individual experiments, and statistical analysis was carried out on the data generated. […] Data are shown as mean ± S.E.M. In all cases n ≥ 3 for all data points.
# [2] = target: T2, chimeric P2X7R with left flipper 280–284 of P2X4 (Homo sapiens, UniProt Q99572, D280T/I21V/K281R/M24R/N16P/N25R/N284E/Q22R/R20V/S23N/T19I/T282D/T283V/Y26L); conditions: chimera 280–284 of P2X4
# T2 sequence (Q99572 1-595 N16P/T19I/R20V/I21V/Q22R/S23N/M24R/N25R/Y26L/D280T/K281R/T282D/T283V/N284E): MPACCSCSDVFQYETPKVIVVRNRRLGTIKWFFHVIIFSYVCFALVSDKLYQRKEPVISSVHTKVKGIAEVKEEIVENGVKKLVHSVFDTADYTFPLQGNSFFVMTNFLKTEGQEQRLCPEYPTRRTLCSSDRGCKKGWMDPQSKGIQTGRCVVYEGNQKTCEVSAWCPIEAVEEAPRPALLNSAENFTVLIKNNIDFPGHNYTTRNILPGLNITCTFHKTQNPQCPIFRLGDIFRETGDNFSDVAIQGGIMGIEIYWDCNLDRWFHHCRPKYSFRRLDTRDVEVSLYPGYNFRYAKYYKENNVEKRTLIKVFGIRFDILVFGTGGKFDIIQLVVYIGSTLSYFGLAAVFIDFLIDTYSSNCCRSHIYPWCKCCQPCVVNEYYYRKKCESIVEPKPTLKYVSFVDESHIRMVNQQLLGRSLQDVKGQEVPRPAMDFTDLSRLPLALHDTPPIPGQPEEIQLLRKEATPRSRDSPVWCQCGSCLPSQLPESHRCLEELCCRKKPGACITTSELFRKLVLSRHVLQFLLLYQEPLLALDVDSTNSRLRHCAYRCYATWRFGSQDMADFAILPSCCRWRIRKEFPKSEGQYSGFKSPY
# Experimental: (§2) The production of the correct mutations and absence of coding errors was determined by DNA sequencing (Automated ABI Sequencing Service, University of Leicester, UK). cRNA was generated for the mutants and 50 nl (50 ng) was injected into manually defoliculated stage V Xenopus laevis oocytes using an Inject+Matic microinjector (J.A. Gabay, Inject+Matic, Geneva, Switzerland). Injected oocytes were stored at 16°C in ND96 buffer [in millimolar concentrations, NaCl 96, KCl 2, CaCl2 1.8, MgCl2 1, sodium pyruvate 5, and HEPES 5 (pH 7.6) supplemented with 50 μg/ml gentamycin and 50 μg/ml tetracycline]. Three to seven days postinjection two-electrode voltage clamp recordings were made from oocytes bathed in divalent-free ND96 buffer (in millimolar concentrations, NaCl 96, KCl 2, sodium pyruvate 5, HEPES 5, and 0.1 flufenamic acid, pH 7.6). Oocytes were voltage clamped at a holding potential of −60 mV with a GeneClamp500B amplifier (Molecular Devices).
# as §1
# [3] = system: P2X7R left flipper point mutant T282A; test: Two-electrode voltage clamp of ATP-evoked currents in Xenopus oocytes; assay type: cell-based, human
# Experimental: as §2
# (§3) Inhibition by the antagonists was expressed as the percentage of the peak current amplitude of an EC90 concentration of ATP recorded before the application of antagonist (ATP gave reproducible responses to ATP in the absence of antagonist). Inhibition curves were fitted with the Hill equation (variable slope) using GraphPad Prism 6 (GraphPad Software, San Diego, CA). […]
# [4] = system: P2X7R left flipper point mutant N284A; test: as above; assay type: cell-based, human
# Experimental: as §2, §3
# P2X7-2Nβ 73–79 deletion = target: T3, P2X7-2Nβ 73–79 deletion (Homo sapiens, UniProt Q99572, DEL73-79/I21V/M24R/N16P/N25R/Q22R/R20V/S23N/T19I/Y26L); design: method as in Allsopp et al., 2017; conditions: ref Allsopp et al., 2017; cited from earlier work
# T3 construct: expressed in transfected cells; host or cells: Xenopus laevis oocytes (cRNA injection)
# T3 sequence (Q99572 with tags, fused parts or gaps N16P/T19I/R20V/I21V/Q22R/S23N/M24R/N25R/Y26L/DEL73-79): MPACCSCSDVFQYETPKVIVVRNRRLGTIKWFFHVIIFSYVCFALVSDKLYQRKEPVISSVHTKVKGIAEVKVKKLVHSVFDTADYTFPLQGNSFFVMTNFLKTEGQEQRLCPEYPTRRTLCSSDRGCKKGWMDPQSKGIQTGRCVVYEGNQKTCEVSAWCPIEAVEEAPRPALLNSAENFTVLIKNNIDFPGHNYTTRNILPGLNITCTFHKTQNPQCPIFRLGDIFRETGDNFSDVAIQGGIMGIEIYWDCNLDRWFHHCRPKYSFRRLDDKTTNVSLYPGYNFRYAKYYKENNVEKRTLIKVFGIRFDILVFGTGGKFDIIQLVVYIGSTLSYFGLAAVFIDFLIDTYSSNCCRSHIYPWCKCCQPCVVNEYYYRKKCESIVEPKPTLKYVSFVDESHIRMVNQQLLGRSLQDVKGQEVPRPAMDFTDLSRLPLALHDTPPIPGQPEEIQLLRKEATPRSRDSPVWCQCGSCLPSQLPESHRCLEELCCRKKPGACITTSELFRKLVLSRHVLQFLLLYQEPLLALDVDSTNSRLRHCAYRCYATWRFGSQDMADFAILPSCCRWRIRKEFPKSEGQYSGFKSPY
# P2X7R point mutant K110Y = target: T4, P2X7R point mutant K110Y (Homo sapiens, UniProt Q99572, I21V/K110Y/M24R/N16P/N25R/Q22R/R20V/S23N/T19I/Y26L); design: method as in Allsopp et al., 2017; conditions: ref Allsopp et al., 2017; cited from earlier work
# T4 construct: expressed in transfected cells; host or cells: Xenopus laevis oocytes (cRNA injection)
# T4 sequence (Q99572 1-595 N16P/T19I/R20V/I21V/Q22R/S23N/M24R/N25R/Y26L/K110Y): T2 sequence (Q99572 1-595 N16P/T19I/R20V/I21V/Q22R/S23N/M24R/N25R/Y26L/D280T/K281R/T282D/T283V/N284E) with K110Y, T280D, R281K, D282T, V283T, E284N
SMILES,IC50 [1] [nM],fold decrease in antagonist sensitivity relative to P2X7-2Nβ [2] [fold],effect on antagonist potency relative to P2X7-2Nβ ([1]; chimera 122–128),effect on antagonist sensitivity relative to P2X7-2Nβ [3],effect on antagonist sensitivity relative to P2X7-2Nβ [4],fold decrease in antagonist sensitivity (P2X7-2Nβ 73–79 deletion) [fold],effect on antagonist sensitivity (P2X7R point mutant K110Y)
"Cl.Clc1cccc(-c2nnnn2Cc2cccnc2)c1Cl.O [A438079, 3-(5-(2,3-dichlorophenyl)-1H-tetrazol-1-yl)methyl pyridine hydrochloride hydrate]",794,,,,,,
"COc1ccc(CC(=O)NC(N=C(NC#N)Nc2cccc3ncccc23)C(C)(C)C)cc1OC (centres unmarked) [A740003, N-[1-[[(cyanoamino)(5-quinolinylamino)methylene]amino]-2,2-dimethylpropyl]-3,4-dimethoxybenzeneacetamide]",100,~10,no effect,no effect,no effect,,
"Cl.Cl.O=C(CC12CC3CC(CC(C3)C1)C2)Nc1cccc2nc(NCCNCCO)ccc12 [AZ10606120, N-[2-[[2-[(2-hydroxyethyl)amino]ethyl]amino]-5-quinolinyl]-2-tricyclo[3.3.1.13,7]dec-1-ylacetamide dihydrochloride]",,,,,,40,increased
